Inhibition and NI data for 2 molecules are collected here from ChEMBL document CHEMBL1135764, “Synthesis and evaluation of Glypsi(PO(2)R-N)Pro-containing pseudopeptides as novel inhibitors of the human cyclophilin hCyp-18” (J Med Chem, 2002).

The source made the active and inactive calls. The calls are words filed in the database; no cut-off is given here.

The test system of test [1] is cyclophilin A hCyp-18 (Homo sapiens). The test can be described thus: Inhibitory activity against Human Cyclophilin hCyp-18 Peptidyl-prolyl isomerase by using the standard trypsin-coupled PPIase (peptidyl-prolyl isomerases) assay at a concentration of 100 uM.
Test [2] shares this test system. Put plainly: Inhibitory activity against Human Cyclophilin hCyp-18 Peptidyl-prolyl isomerase by using the standard uncoupled PPIase (peptidyl-prolyl isomerases) assay at a concentration of 500 uM.
Test [3] has the same test system. The test can be described thus: Inhibitory activity against Human Cyclophilin hCyp-18 Peptidyl-prolyl isomerase by using the standard uncoupled PPIase (peptidyl-prolyl isomerases) assay at a concentration of 500 uM;NI-no inhibition.

One may read the Inhibition as the percentage by which the read-out fell short of the control. A lower Inhibition goes with a response near the control. On to `COC(=O)Cc1ccc(NC(=O)[C@H](Cc2ccccc2)NC(=O)C2CCCN2P(=O)(O)CNC(=O)[C@H](C)NC(C)=O)cc1` (stereo partly drawn), for which the Inhibition in test [1] was determined as 0%. Take `CCOP(=O)(CNC(=O)[C@H](C)NC(C)=O)N1CCCC1C(=O)N[C@H](CNc1ccc([N+](=O)[O-])cc1)Cc1ccccc1` (stereo partly drawn): the Inhibition in test [2] was determined as 30%. Further, the NI entry in test [3] was “inactive”.
